Results: ChEMBL document CHEMBL1130021 (J Med Chem, 1997)
pIC50: −log10 of the molar value. Counter-ions that a name gives are not always drawn.

Test system: MCF7
Experiment: Inhibition of estrogen-induced proliferation in human MCF-7 breast cancer cells
Assay type: functional, cell-based

Row | pIC50 | Compound
1 | 10.30 | Cl.Oc1ccc(-c2sc3cc(O)ccc3c2Oc2ccc(OCCN3CCCCC3)cc2)cc1
2 | 9.72 | Oc1ccc(-c2sc3cc(O)ccc3c2Cc2ccc(OCCN3CCCCC3)cc2)cc1
3 | 9.55 | Oc1ccc(-c2sc3cc(O)ccc3c2Sc2ccc(OCCN3CCCCC3)cc2)cc1
4 | 10.00 | Oc1ccc(-c2sc3cc(O)ccc3c2Nc2ccc(OCCN3CCCCC3)cc2)cc1
5 | 9.40 | O=C(c1ccc(OCCN2CCCCC2)cc1)c1c(-c2ccc(O)cc2)sc2cc(O)ccc12 [RALOXIFENE HYDROCHLORIDE]
6 | 6.32 | CC/C(=C(\c1ccccc1)c1ccc(OCCN(C)C)cc1)c1ccccc1 [TAMOXIFEN]

Row | Compound | pIC50
7 | C[C@]12CC[C@@H]3c4ccc(O)cc4C[C@@H](CCCCCCCCC[S+]([O-])CCCC(F)(F)C(F)(F)F)[C@H]3[C@@H]1CC[C@@H]2O (stereo partly drawn) [FULVESTRANT] | 9.31

Test system: Rattus norvegicus
Experiment: Percent reduction in total serum Cholesterol level at 1.0 mg/kg oral dose
Assay type: functional

Row | Compound | Reduction [%]
8 | Cl.Oc1ccc(-c2sc3cc(O)ccc3c2Oc2ccc(OCCN3CCCCC3)cc2)cc1 | 45
